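Following 48 hours of exposure in 96-well plates, responses at five concentrations were used to interpolate endpoints linearly. The concentration for 50% growth inhibition is given as GI50.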 Active and inactive are the calls of the source. No stated cut-off is given here; in the data, active = GI50 up to about 1.1 µM and inactive = higher.
What was measured:
Assay in all cases: DTP human tumour cell line panel, 48 h
HL-60 = tested on: HL-60
NCI-H522 = tested on: NCI-H522
HCT-116 = tested on: HCT-116
NCI-H460 = tested on: NCI-H460
SK-MEL-28 = tested on: SK-MEL-28
MDA-MB-435 = tested on: MDA-MB-435
UACC-257 = tested on: UACC-257
SNB-75 = tested on: SNB-75
CAKI-1 = tested on: CAKI-1
OVCAR-8 = tested on: OVCAR-8
HCT-15 = tested on: HCT-15
MDA-N = tested on: MDA-N
SN12C = tested on: SN12C
OVCAR-5 = tested on: OVCAR-5
KM12 = tested on: KM12
786-0 = tested on: 786-0
HCC 2998 = tested on: HCC 2998
M14 = tested on: M14
UACC-62 = tested on: UACC-62
SK-OV-3 = tested on: SK-OV-3

SMILES	GI50 (HL-60)	GI50 (NCI-H522)	GI50 (HCT-116)	GI50 (NCI-H460)	GI50 (SK-MEL-28)	GI50 (MDA-MB-435)	GI50 (UACC-257)	GI50 (SNB-75)	GI50 (CAKI-1)	GI50 (OVCAR-8)	GI50 (HCT-15)	GI50 (MDA-N)	GI50 (SN12C)	GI50 (OVCAR-5)	GI50 (KM12)	GI50 (786-0)	GI50 (HCC 2998)	GI50 (M14)	GI50 (UACC-62)	GI50 (SK-OV-3)
O=C(NCc1ccccc1)c1c(O)nc2ccccc2c1O	> 100 µM (inactive)	> 100 µM (inactive)	> 100 µM (inactive)	> 100 µM (inactive)	> 100 µM (inactive)	> 100 µM (inactive)	> 100 µM (inactive)	> 100 µM (inactive)	> 100 µM (inactive)	> 100 µM (inactive)	> 100 µM	> 100 µM (inactive)	> 100 µM (inactive)	> 100 µM (inactive)	> 100 µM (inactive)	> 100 µM (inactive)	> 100 µM (inactive)	–	–	–
C=C1[C@H]2O[C@H]2[C@@H](OC(C)=O)[C@@]2(C)[C@@H](OC(C)=O)C[C@@H](OC(=O)CCC)[C@@](C)(O)[C@@H]2[C@@H](OC(C)=O)[C@]2(O)[C@@H](C)C(=O)O[C@H]2[C@H]1Cl	> 100 µM (inactive)	> 100 µM (inactive)	> 100 µM (inactive)	> 100 µM (inactive)	> 100 µM (inactive)	> 100 µM (inactive)	> 100 µM (inactive)	> 100 µM (inactive)	> 100 µM (inactive)	> 100 µM (inactive)	> 100 µM	> 100 µM (inactive)	> 100 µM (inactive)	> 100 µM (inactive)	> 100 µM (inactive)	> 100 µM (inactive)	> 100 µM (inactive)	> 100 µM (inactive)	> 100 µM (inactive)	–
O=c1ccn(-c2ccccn2)c(=O)n1-c1ccccn1	> 100 µM (inactive)	> 100 µM (inactive)	> 100 µM (inactive)	> 100 µM (inactive)	> 100 µM (inactive)	> 100 µM (inactive)	> 100 µM (inactive)	> 100 µM (inactive)	> 100 µM (inactive)	> 100 µM (inactive)	> 100 µM	> 100 µM (inactive)	> 100 µM (inactive)	> 100 µM (inactive)	> 100 µM (inactive)	> 100 µM (inactive)	> 100 µM (inactive)	> 100 µM (inactive)	–	> 100 µM (inactive)
N#CC1=C(N)OC2=C(CCCc3ccccc32)C1c1ccc([N+](=O)[O-])cc1 (stereo not given)	5.93 µM (inactive)	8.22 µM (inactive)	12.8 µM (inactive)	17.7 µM (inactive)	15.8 µM (inactive)	15.9 µM (inactive)	14.8 µM (inactive)	55 µM (inactive)	29.6 µM (inactive)	17.9 µM (inactive)	12.2 µM	15.9 µM (inactive)	15.1 µM (inactive)	21.8 µM (inactive)	16.1 µM (inactive)	18.1 µM (inactive)	13.6 µM (inactive)	13.6 µM (inactive)	11.2 µM (inactive)	30.9 µM (inactive)
O=C1OC2(CCCCC2)C(Oc2ccc(Cl)cc2)=C1F	23.7 µM (inactive)	12.7 µM (inactive)	35.7 µM (inactive)	41.1 µM (inactive)	23.7 µM (inactive)	35.6 µM (inactive)	24.3 µM (inactive)	89.1 µM (inactive)	77.4 µM (inactive)	51.9 µM (inactive)	–	37.2 µM (inactive)	45.2 µM (inactive)	74 µM (inactive)	40.1 µM (inactive)	48.3 µM (inactive)	22.3 µM (inactive)	33 µM (inactive)	22.1 µM (inactive)	> 100 µM (inactive)
CCOC(=O)c1sc2nc(SC)nc3c2c1N=CN3c1ccc(Br)cc1	> 100 µM (inactive)	> 100 µM (inactive)	> 100 µM (inactive)	> 100 µM (inactive)	> 100 µM (inactive)	> 100 µM (inactive)	> 100 µM (inactive)	38.2 µM (inactive)	98.9 µM (inactive)	> 100 µM (inactive)	> 100 µM	> 100 µM (inactive)	> 100 µM (inactive)	> 100 µM (inactive)	> 100 µM (inactive)	40.1 µM (inactive)	> 100 µM (inactive)	> 100 µM (inactive)	> 100 µM (inactive)	> 100 µM (inactive)
Cn1c(=O)c(C(=O)Nc2nc(C34CC5CC(CC(C5)C3)C4)cs2)c(O)c2ccccc21	86.9 µM (inactive)	55.3 µM (inactive)	> 100 µM (inactive)	> 100 µM (inactive)	> 100 µM (inactive)	> 100 µM (inactive)	> 100 µM (inactive)	56.1 µM (inactive)	73.5 µM (inactive)	> 100 µM (inactive)	> 100 µM	> 100 µM (inactive)	> 100 µM (inactive)	> 100 µM (inactive)	> 100 µM (inactive)	36.7 µM (inactive)	> 100 µM (inactive)	–	–	–
Cc1cc2c(c3c1c1ccccc1n3C)C(=O)C=CC2=O	1.45 µM (inactive)	13.9 µM (inactive)	18.8 µM (inactive)	33.9 µM (inactive)	19.9 µM (inactive)	28.8 µM (inactive)	18.2 µM (inactive)	41.6 µM (inactive)	23.2 µM (inactive)	22.9 µM (inactive)	13.7 µM	24.5 µM (inactive)	27.2 µM (inactive)	43.7 µM (inactive)	25.2 µM (inactive)	5.6 µM (inactive)	33 µM (inactive)	25.6 µM (inactive)	19.6 µM (inactive)	55.5 µM (inactive)
CC1(C)CC(=O)c2c(-c3ccc(Cl)cc3)c(C#N)c(=S)n(C3OC(CO)C(O)C(O)C3O)c2C1 (stereo not given)	20.2 µM (inactive)	35 µM (inactive)	16 µM (inactive)	30.3 µM (inactive)	34.8 µM (inactive)	27.9 µM (inactive)	28.4 µM (inactive)	25.3 µM (inactive)	78.7 µM (inactive)	35.7 µM (inactive)	21.4 µM	19.1 µM (inactive)	31.7 µM (inactive)	> 100 µM (inactive)	37.3 µM (inactive)	27.5 µM (inactive)	36.7 µM (inactive)	45.7 µM (inactive)	16.8 µM (inactive)	–
Cc1c(C(C)C)cc(OCCO)cc1C(C)C	23.1 µM (inactive)	25.9 µM (inactive)	31.3 µM (inactive)	36.4 µM (inactive)	87.9 µM (inactive)	31.5 µM (inactive)	35.2 µM (inactive)	23.9 µM (inactive)	70.6 µM (inactive)	42.3 µM (inactive)	35.6 µM	31.2 µM (inactive)	30.2 µM (inactive)	66.4 µM (inactive)	43.2 µM (inactive)	24.4 µM (inactive)	55.6 µM (inactive)	38.8 µM (inactive)	40.6 µM (inactive)	> 100 µM (inactive)
Cc1ccc(/C=C/C(=N/NC(=O)N/N=C(/C=C/c2ccc(C)cc2)C(C)(C)CN2CCCCC2)C(C)(C)CN2CCCCC2)cc1	1.63 µM (inactive)	1.63 µM (inactive)	1.34 µM (inactive)	1.64 µM (inactive)	1.73 µM (inactive)	1.45 µM (inactive)	1.72 µM (inactive)	1.46 µM (inactive)	2.31 µM (inactive)	1.54 µM (inactive)	1.57 µM	1.52 µM (inactive)	1.61 µM (inactive)	2.16 µM (inactive)	1.64 µM (inactive)	1.39 µM (inactive)	1.77 µM (inactive)	0.614 µM (active)	2.3 µM (inactive)	1.77 µM (inactive)
N#CC(NNC(=O)Cc1ccccc1)c1c(O)ccc2ccccc12 (stereo not given)	1.67 µM (inactive)	3.47 µM (inactive)	3.46 µM (inactive)	4.25 µM (inactive)	7.66 µM (inactive)	10.4 µM (inactive)	3.59 µM (inactive)	8.47 µM (inactive)	4.91 µM (inactive)	4.17 µM (inactive)	2.7 µM	7.5 µM (inactive)	7.93 µM (inactive)	13.9 µM (inactive)	4.02 µM (inactive)	4.6 µM (inactive)	14.3 µM (inactive)	5.13 µM (inactive)	3.08 µM (inactive)	4.84 µM (inactive)
C/C=C1/CN2CCC34C5=CC(=O)C(c6cc7c(cc6OC)N(C)C6=C(C(=O)OC)CC8(CC)CCCN9CCC67C98)=CC5=NC23CCC1C4C(=O)OC (stereo not given)	1.93 µM (inactive)	11.1 µM (inactive)	10.9 µM (inactive)	14.3 µM (inactive)	16.8 µM (inactive)	13 µM (inactive)	14 µM (inactive)	8.11 µM (inactive)	9.51 µM (inactive)	14.9 µM (inactive)	14.6 µM	14 µM (inactive)	14.5 µM (inactive)	12.2 µM (inactive)	16.4 µM (inactive)	12.1 µM (inactive)	15.7 µM (inactive)	12.3 µM (inactive)	16.6 µM (inactive)	16.7 µM (inactive)
COc1ccc(/C=C/C(=O)/C=C/c2ccc(OC)cc2OC)c(OC)c1	3.13 µM (inactive)	2.41 µM (inactive)	4.34 µM (inactive)	5.08 µM (inactive)	4.83 µM (inactive)	2.41 µM (inactive)	1.39 µM (inactive)	14.9 µM (inactive)	5.35 µM (inactive)	11.6 µM (inactive)	3.75 µM	2.22 µM (inactive)	18.6 µM (inactive)	4.01 µM (inactive)	33.8 µM (inactive)	5.81 µM (inactive)	3.23 µM (inactive)	7.14 µM (inactive)	5.6 µM (inactive)	7.35 µM (inactive)
